From US20190202885A1, “TauT (taurine transporter) peptide cancer vaccine” (priority 2017, published 2019)
Where no end group is shown, it is not given here.

Columns and labels:
p53^−/− mice = experiment: TauT-peptide vaccination of p53−/− mice: tumor development and lifespan; assay type: in vivo
Method: To evaluate the efficacy of TauT-peptide as a cancer vaccine, p53^−/− (C57BL/6J background) were injected with either TauT-peptide (100 μg/kg) or vehicle only at the age of 4 weeks and boosted 2 weeks later (n=12 for each group). All mice were observed daily for signs of morbidity and the development of tumors.
To test TauT-peptide vaccine, p53 knockout (KO) mice were immunized with 100 μg/kg and boosted with an equal amount of antigen 2 weeks late. […] Mice were bled on Days 21 and 36 to measure the antibody response.
To evaluate the efficacy of TauT-peptide as a cancer vaccine, p53 null (C57BL/6J background) were injected with either TauT-peptide (100 μg/kg) or vehicle only at the age of 4 weeks and boosted 2 weeks later (n=12 for each group). All mice were observed daily for signs of morbidity and the development of tumors.

p53^+/− mice = experiment: TauT-peptide vaccination of p53+/− mice: tumor development and lifespan; assay type: in vivo
Method: FIG. 2A and FIG. 2B. TauT-peptide vaccination prolongs p53^+/− mice lifespan. To evaluate the efficacy of TauT-peptide as a cancer vaccine, p53^+/− (C57BL/6J background) were injected with either TauT-peptide (100 μg/kg) or vehicle only at the age of 4 weeks and boosted 2 weeks later (n=15 for each group). All mice were observed daily for signs of morbidity and the development of tumors. The p53^+/− control mice started to develop tumor (mainly osteosarcoma) at the age of 186 day (FIG. 2A). The median lifespan for p53^+/− control mice was 315 days (FIG. 2B), which consistent with other studies. […] TauT-peptide vaccination delayed tumor develops in all vaccinated p53^+/− mice, which started to develop tumor (mainly osteosarcoma) and died at the age of 526 days (FIG. 2A).
TauT-peptide (SEQ ID NO 3) was coupled to KLH with a kit (Imject SuperCarrier EDC system for Peptides; Pierce). To test TauT-peptide vaccine, p53 knockout (KO) mice were immunized with 100 μg/kg and boosted with an equal amount of antigen 2 weeks late. To develop and test TauT-Ab, wild type control mice were immunized with 100 μg/kg TauT-peptide and boosted with an equal amount of antigen 2 weeks late. Mice were bled on Days 21 and 36 to measure the antibody response. Antisera were collected on Day 49 and purified by affinity column chromatography (Pierce). Antisera were stored at −80° C. Specificity of the antibody was determined by Western blot analysis (10).

[1] = p53−/− mice, 100 μg/kg at 4 weeks of age, boosted 2 weeks later
[2] = p53−/− mice, 100 μg/kg at 4 weeks of age, boosted 2 weeks later, n=12
[3] = p53+/− mice, 100 μg/kg at 4 weeks of age, boosted 2 weeks later, n=15

Substance: TauT-peptide vaccine: TauT-peptide (SEQ ID NO 3) comprising amino acid residues 313-326 of TauT (SLC6A6), coupled to KLH, used as peptide vaccine (GSYNKYKYNSYRDC; also: coupled to KLH carrier, site not given here)
- response to the vaccine (p53^−/− mice; p53−/− mice vaccinated): 100%
- age at which mice started to develop tumor (mainly lymphoma) and died (p53^−/− mice; [1]): 6.3 months
- lifespan (p53^−/− mice; [1]): 6.9 months
- age at which mice started to develop tumor (mainly lymphoma) (p53^−/− mice; [2]): 189 days
- median lifespan (p53^−/− mice; [2]): 207 days
- increase of (median) lifespan versus control (p53^−/− mice; p53−/− mice, vaccinated vs vehicle control): 1.5 fold
- response to the vaccine (p53^+/− mice; p53+/− mice vaccinated): 100%
- age at which mice started to develop tumor (mainly osteosarcoma) and died (p53^+/− mice; [3]): 526 days
- median lifespan (p53^+/− mice; [3]): 621 days
